Measured values reported in patent US6441195B1, “Substituted sulphonylamino(thio) carbonyl compounds” (Bayer Aktiengesellschaft, priority 1995, dated 2002).

What was measured:
Type in all cases: in vivo
[1] = test system: Ambrosia; assay: Pre-emergence test/Greenhouse, Ambrosia; conditions: after three weeks
Description: (§1) To produce a suitable preparation of the active compound, 1 part by weight of active compound is mixed with the stated amount of solvent, the stated amount of emulsifier is added and the concentrate is diluted with water to the desired concentration.
(§2) Seeds of the test plants are sown in normal soil. After about 24 hours, the soil is watered with the preparation of active compound. Advantageously, the amount of water per unit area is kept constant. The active compound concentration in the preparation is not important, only the active compound appliation rate per unit area matters.
(§3) After three weeks, the degree of damage to the plants is rated in % damage in comparison to the development of the untreated control.
(§4) 0%=no action (like untreated control)

[2] = test system: weeds; assay: Pre-emergence test (greenhouse), activity against weeds; conditions: in words
Description: Solvent: 5 parts by weight of acetone
Emulsifier: 1 part by weight of alkylaryl polyglycol ether
as §1, §2, §3, §4

[3] = test system: Matricaria; assay: Pre-emergence test/Greenhouse, Matricaria; conditions: after three weeks
Description: as §1, §2, §3, §4

[4] = test system: Poa; assay: Pre-emergence test/Greenhouse, Poa; conditions: after three weeks
Description: as §1, §2, §3, §4

[5] = test system: Maize; assay: Pre-emergence test/Greenhouse, Maize; conditions: in vivo
Description: as §1, §2, §3, §4

[6] = test system: Lolium; assay: Pre-emergence test/Greenhouse, Lolium; conditions: after three weeks
Description: as §1, §2, §3, §4

[7] = test system: Solanum; assay: Pre-emergence test/Greenhouse, Solanum; conditions: after three weeks
Description: as §1, §2, §3, §4

[8] = test system: Sorghum; assay: Pre-emergence test/Greenhouse, Sorghum; conditions: after three weeks
Description: as §1, §2, §3, §4

SMILES: COC(=O)c1scc(C)c1S(=O)(=O)NC(=O)n1nc(OC(C)C)n(C2CC2)c1=O [Example 53]
- degree of damage to the plants (% damage vs untreated control), Ambrosia ([1]; 125 g of ai./ha): 95%
- activity against weeds [2]: very strong activity against weeds
- degree of damage to the plants (% damage vs untreated control), Matricaria ([3]; 125 g of ai./ha): 95%
- degree of damage to the plants (% damage vs untreated control), Poa ([4]; 125 g of ai./ha): 95%
- degree of damage to the plants (% damage vs untreated control), Maize [5]: 0%
- degree of damage to the plants (% damage vs untreated control), Lolium ([6]; 125 g of ai./ha): 95%
- degree of damage to the plants (% damage vs untreated control), Solanum ([7]; 125 g of ai./ha): 95%

SMILES: CCCOc1nn(C(=O)NS(=O)(=O)c2c(C)csc2C(=O)OCC)c(=O)n1C [Example 58]
- activity against weeds [2]: very strong activity against weeds
- degree of damage to the plants (% damage vs untreated control), Matricaria ([3]; 125 g of ai./ha): 100%
- degree of damage to the plants (% damage vs untreated control), Poa ([4]; 125 g of ai./ha): 95%
- degree of damage to the plants (% damage vs untreated control), Maize [5]: 20%
- degree of damage to the plants (% damage vs untreated control), Lolium ([6]; 125 g of ai./ha): 80%
- degree of damage to the plants (% damage vs untreated control), Solanum ([7]; 125 g of ai./ha): 95%

SMILES: CCOC(=O)c1scc(C)c1S(=O)(=O)NC(=O)n1nc(OC(C)C)n(C)c1=O [Example 59]
- degree of damage to the plants (% damage vs untreated control), Ambrosia ([1]; 125 g of ai./ha): 95%
- activity against weeds [2]: very strong activity against weeds
- degree of damage to the plants (% damage vs untreated control), Matricaria ([3]; 125 g of ai./ha): 100%
- degree of damage to the plants (% damage vs untreated control), Poa ([4]; 125 g of ai./ha): 70%
- degree of damage to the plants (% damage vs untreated control), Maize [5]: 0%
- degree of damage to the plants (% damage vs untreated control), Lolium ([6]; 125 g of ai./ha): 100%
- degree of damage to the plants (% damage vs untreated control), Solanum ([7]; 125 g of ai./ha): 95%

SMILES: CCOC(=O)c1scc(C)c1S(=O)(=O)NC(=O)n1nc(CC)n(C)c1=O [Example 66]
- activity against weeds [2]: very strong activity against weeds
- degree of damage to the plants (% damage vs untreated control), Matricaria ([3]; 125 g of ai./ha): 100%
- degree of damage to the plants (% damage vs untreated control), Maize [5]: 0%
- degree of damage to the plants (% damage vs untreated control), Lolium ([6]; 125 g of ai./ha): 100%
- degree of damage to the plants (% damage vs untreated control), Sorghum ([8]; 125 g of ai./ha): 100%
- degree of damage to the plants (% damage vs untreated control), Solanum ([7]; 125 g of ai./ha): 100%

SMILES: CCCc1nn(C(=O)NS(=O)(=O)c2c(C)csc2C(=O)OCC)c(=O)n1C [Example 67]
- activity against weeds [2]: very strong activity against weeds
- degree of damage to the plants (% damage vs untreated control), Matricaria ([3]; 60 g of ai./ha): 100%
- degree of damage to the plants (% damage vs untreated control), Maize [5]: 0%
- degree of damage to the plants (% damage vs untreated control), Lolium ([6]; 60 g of ai./ha): 100%
- degree of damage to the plants (% damage vs untreated control), Sorghum ([8]; 60 g of ai./ha): 90%
- degree of damage to the plants (% damage vs untreated control), Solanum ([7]; 60 g of ai./ha): 100%

SMILES: CCOC(=O)c1scc(C)c1S(=O)(=O)NC(=O)n1nc(OC(C)C)n(C2CC2)c1=O [Example 70]
- degree of damage to the plants (% damage vs untreated control), Ambrosia ([1]; 60 g of ai./ha): 90%
- activity against weeds [2]: very strong activity against weeds
- degree of damage to the plants (% damage vs untreated control), Matricaria ([3]; 60 g of ai./ha): 100%
- degree of damage to the plants (% damage vs untreated control), Poa ([4]; 60 g of ai./ha): 90%
- degree of damage to the plants (% damage vs untreated control), Maize [5]: 10%
- degree of damage to the plants (% damage vs untreated control), Lolium ([6]; 60 g of ai./ha): 90%
- degree of damage to the plants (% damage vs untreated control), Solanum ([7]; 60 g of ai./ha): 100%

SMILES: CCOC(=O)c1scc(C)c1S(=O)(=O)NC(=O)c1noc(C)n1 [Example 72]
- degree of damage to the plants (% damage vs untreated control), Ambrosia ([1]; 125 g of ai./ha): 95%
- activity against weeds [2]: very strong activity against weeds
- degree of damage to the plants (% damage vs untreated control), Matricaria ([3]; 125 g of ai./ha): 100%
- degree of damage to the plants (% damage vs untreated control), Poa ([4]; 125 g of ai./ha): 70%
- degree of damage to the plants (% damage vs untreated control), Maize [5]: 10%
- degree of damage to the plants (% damage vs untreated control), Lolium ([6]; 125 g of ai./ha): 90%
- degree of damage to the plants (% damage vs untreated control), Solanum ([7]; 125 g of ai./ha): 100%

SMILES: CCc1nn(C(=O)NS(=O)(=O)c2c(C)csc2C(=O)OC(C)C)c(=O)n1C [Example 77]
- activity against weeds [2]: very strong activity against weeds
- degree of damage to the plants (% damage vs untreated control), Matricaria ([3]; 60 g of ai./ha): 100%
- degree of damage to the plants (% damage vs untreated control), Maize [5]: 0%
- degree of damage to the plants (% damage vs untreated control), Lolium ([6]; 60 g of ai./ha): 95%
- degree of damage to the plants (% damage vs untreated control), Sorghum ([8]; 60 g of ai./ha): 90%
- degree of damage to the plants (% damage vs untreated control), Solanum ([7]; 60 g of ai./ha): 90%

SMILES: CCCOC(=O)c1scc(C)c1S(=O)(=O)NC(=O)n1nc(OCC)n(C)c1=O [Example 80]
- activity against weeds [2]: very strong activity against weeds
- degree of damage to the plants (% damage vs untreated control), Matricaria ([3]; 125 g of ai./ha): 100%
- degree of damage to the plants (% damage vs untreated control), Maize [5]: 0%
- degree of damage to the plants (% damage vs untreated control), Lolium ([6]; 125 g of ai./ha): 95%
- degree of damage to the plants (% damage vs untreated control), Sorghum ([8]; 125 g of ai./ha): 90%
- degree of damage to the plants (% damage vs untreated control), Solanum ([7]; 125 g of ai./ha): 95%

SMILES: CCSc1nn(C(=O)NS(=O)(=O)c2c(C)csc2C(=O)OC(C)C)c(=O)n1C [Example 81]
- activity against weeds [2]: very strong activity against weeds
- degree of damage to the plants (% damage vs untreated control), Matricaria ([3]; 60 g of ai./ha): 100%
- degree of damage to the plants (% damage vs untreated control), Lolium ([6]; 60 g of ai./ha): 100%
- degree of damage to the plants (% damage vs untreated control), Sorghum ([8]; 60 g of ai./ha): 95%
- degree of damage to the plants (% damage vs untreated control), Solanum ([7]; 60 g of ai./ha): 100%

SMILES: COc1nn(C(=O)NS(=O)(=O)c2c(C)csc2C(=O)OC(C)C)c(=O)n1C [Example 82]
- activity against weeds [2]: very strong activity against weeds
- degree of damage to the plants (% damage vs untreated control), Matricaria ([3]; 60 g of ai./ha): 100%
- degree of damage to the plants (% damage vs untreated control), Maize [5]: 0%
- degree of damage to the plants (% damage vs untreated control), Lolium ([6]; 60 g of ai./ha): 60%
- degree of damage to the plants (% damage vs untreated control), Sorghum ([8]; 60 g of ai./ha): 90%
- degree of damage to the plants (% damage vs untreated control), Solanum ([7]; 60 g of ai./ha): 100%

SMILES: CCOc1nn(C(=O)NS(=O)(=O)c2c(C)csc2C(=O)OC(C)C)c(=O)n1C1CC1 [Example 85]
- activity against weeds [2]: very strong activity against weeds
- degree of damage to the plants (% damage vs untreated control), Matricaria ([3]; 125 g of ai./ha): 100%
- degree of damage to the plants (% damage vs untreated control), Maize [5]: 60%
- degree of damage to the plants (% damage vs untreated control), Lolium ([6]; 125 g of ai./ha): 95%
- degree of damage to the plants (% damage vs untreated control), Sorghum ([8]; 125 g of ai./ha): 95%
- degree of damage to the plants (% damage vs untreated control), Solanum ([7]; 125 g of ai./ha): 100%

SMILES: CCCOC(=O)c1scc(C)c1S(=O)(=O)NC(=O)n1nc(OC)n(C)c1=O [Example 89]
- activity against weeds [2]: very strong activity against weeds
- degree of damage to the plants (% damage vs untreated control), Matricaria ([3]; 125 g of ai./ha): 100%
- degree of damage to the plants (% damage vs untreated control), Maize [5]: 0%
- degree of damage to the plants (% damage vs untreated control), Lolium ([6]; 125 g of ai./ha): 100%
- degree of damage to the plants (% damage vs untreated control), Sorghum ([8]; 125 g of ai./ha): 90%
- degree of damage to the plants (% damage vs untreated control), Solanum ([7]; 125 g of ai./ha): 100%

SMILES: COC(=O)c1cccc(C)c1S(=O)(=O)NC(=O)n1nc(SC)n(C2CC2)c1=O [Example 158]
- activity against weeds [2]: very strong activity against weeds
